{
  "source": "ChEMBL document CHEMBL5126512",
  "about": "“Current status of carbazole hybrids as anticancer agents” (Eur J Med Chem, 2022)",
  "key": {"KYSE-510": {"system": "KYSE-510", "experiment": "Antiproliferative activity against human KYSE-510 cells assessed as cell growth inhibition measured after 48 hrs by CCK-8 assay", "type": "functional, cell-based", "settings": "KYSE-510, 48 h"}, "[1]": {"experiment": "Antiproliferative activity against human KYSE-170 cells assessed as cell growth inhibition measured after 48 hrs by CCK-8 assay", "type": "functional, cell-based", "settings": "KYSE-170, 48 h"}, "KYSE-410": {"system": "KYSE-410", "experiment": "Antiproliferative activity against human KYSE-410 cells assessed as cell growth inhibition measured after 48 hrs by CCK-8 assay", "type": "functional, cell-based", "settings": "KYSE-410, 48 h"}, "KYSE-30": {"system": "KYSE-30", "experiment": "Antiproliferative activity against human KYSE-30 cells assessed as cell growth inhibition measured after 48 hrs by CCK-8 assay", "type": "functional, cell-based", "settings": "KYSE-30, 48 h"}, "KYSE-140": {"system": "KYSE-140", "experiment": "Antiproliferative activity against human KYSE-140 cells assessed as cell growth inhibition measured after 48 hrs by CCK-8 assay", "type": "functional, cell-based", "settings": "KYSE-140, 48 h"}, "MCF7 [2]": {"system": "MCF7", "experiment": "Antiproliferative activity against human MCF7 cells assessed as cell growth inhibition measured after 48 hrs by SRB assay", "type": "functional, cell-based", "settings": "MCF7, 48 h"}, "HepG2 [3]": {"system": "HepG2", "experiment": "Antiproliferative activity against human HepG2 cells assessed as cell growth inhibition measured after 48 hrs by SRB assay", "type": "functional, cell-based", "settings": "HepG2, 48 h"}, "MIA PaCa-2": {"system": "MIA PaCa-2", "experiment": "Antiproliferative activity against human MIA PaCa-2 cells assessed as cell growth inhibition measured after 48 hrs by SRB assay", "type": "functional, cell-based", "settings": "MIA PaCa-2, 48 h"}, "Bel-7402": {"system": "Bel-7402", "experiment": "Antiproliferative activity against human Bel-7402 cells assessed as cell growth inhibition measured after 48 hrs by SRB assay", "type": "functional, cell-based", "settings": "Bel-7402, 48 h"}, "HepG2 [4]": {"system": "HepG2", "experiment": "Antitumor activity against human HepG2 xenografted in BALB/c nude mouse assessed as tumor growth inhibition at 10 mg/kg, iv administered every 2 days and measured upto 30 days relative to control", "type": "functional", "settings": "HepG2, 720 h, time <= 30 day, read-out: TGI"}, "HepG2 [5]": {"system": "HepG2", "experiment": "Antitumor activity against human HepG2 xenografted in BALB/c nude mouse assessed as tumor growth inhibition at 50 mg/kg, iv administered every 2 days and measured upto 30 days relative to control", "type": "functional", "settings": "read-out: TGI"}, "MCF7 [6]": {"system": "MCF7", "experiment": "Cytotoxicity against human MCF7 cells assessed as cell growth inhibition measured after 72 hrs by MTT assay", "type": "functional, cell-based", "settings": "MCF7, 72 h"}, "MDA-MB-231 [7]": {"system": "MDA-MB-231", "experiment": "Cytotoxicity against human MDA-MB-231 cells assessed as cell growth inhibition measured after 72 hrs by MTT assay", "type": "functional, cell-based", "settings": "MDA-MB-231, 72 h"}, "HepG2 [8]": {"system": "HepG2", "experiment": "Cytotoxicity against human HepG2 cells assessed as cell growth inhibition measured after 72 hrs by MTT assay", "type": "functional, cell-based", "settings": "HepG2, 72 h"}, "[9]": {"experiment": "Cytotoxicity against mouse 3T3-L1 cells assessed as cell growth inhibition measured after 72 hrs by MTT assay", "type": "toxicity, cell-based"}, "[10]": {"experiment": "Cytotoxicity against human MCF-10A cells assessed as cell growth inhibition measured after 72 hrs by MTT assay", "type": "toxicity, cell-based"}, "HeLa": {"system": "HeLa", "experiment": "Cytotoxicity against human HeLa cells assessed as cell growth inhibition measured after 72 hrs by MTT assay", "type": "functional, cell-based", "settings": "pooled result: one value given for 3 cell lines, strains, targets or settings"}, "DU-145": {"system": "DU-145", "experiment": "Antiproliferative activity against human DU-145 cells assessed as cell growth inhibition measured after 24 hrs by MTT assay", "type": "functional, cell-based", "settings": "DU-145, 24 h"}, "MDA-MB-231 [11]": {"system": "MDA-MB-231", "experiment": "Antiproliferative activity against human MDA-MB-231 cells assessed as cell growth inhibition measured after 24 hrs by MTT assay", "type": "functional, cell-based", "settings": "MDA-MB-231, 24 h"}, "SK-OV-3": {"system": "SK-OV-3", "experiment": "Antiproliferative activity against human SK-OV-3 cells assessed as cell growth inhibition measured after 24 hrs by MTT assay", "type": "functional, cell-based", "settings": "SK-OV-3, 24 h"}, "B16-F10": {"system": "B16-F10", "experiment": "Antiproliferative activity against mouse B16-F10 cells assessed as cell growth inhibition measured after 24 hrs by MTT assay", "type": "functional, cell-based", "settings": "B16-F10, 24 h"}, "HepG2 [12]": {"system": "HepG2", "experiment": "Cytotoxicity against human HepG2 cells assessed as cell growth inhibition measured after 48 hrs by MTT assay", "type": "functional, cell-based", "settings": "HepG2, 48 h"}, "SMMC-7721": {"system": "SMMC-7721", "experiment": "Cytotoxicity against human SMMC-7721 cells assessed as cell growth inhibition measured after 48 hrs by MTT assay", "type": "functional, cell-based", "settings": "SMMC-7721, 48 h"}, "Hep 3B2": {"system": "Hep 3B2", "experiment": "Cytotoxicity against human Hep3B cells assessed as cell growth inhibition measured after 48 hrs by MTT assay", "type": "functional, cell-based"}, "[13]": {"experiment": "Cytotoxicity against human QSG7701 cells assessed as cell growth inhibition measured after 48 hrs by MTT assay", "type": "toxicity, cell-based"}, "MDA-MB-231 [14]": {"system": "MDA-MB-231", "experiment": "Antiproliferative activity against human MDA-MB-231 cells assessed as cell growth inhibition measured after 72 hrs by MTT assay", "type": "functional, cell-based", "settings": "MDA-MB-231, 72 h"}, "MCF7 [15]": {"system": "MCF7", "experiment": "Antiproliferative activity against human MCF7 cells assessed as cell growth inhibition measured after 72 hrs by MTT assay", "type": "functional, cell-based", "settings": "MCF7, 72 h"}, "CCRF-CEM": {"system": "CCRF-CEM", "experiment": "Antiproliferative activity against human CCRF-CEM cells assessed as cell growth inhibition measured after 48 hrs by SRB assay", "type": "functional, cell-based"}, "A549": {"system": "A549", "experiment": "Antiproliferative activity against human A549 cells assessed as cell growth inhibition measured after 48 hrs by SRB assay", "type": "functional, cell-based", "settings": "A549, 48 h"}, "[16]": {"experiment": "Cytotoxicity against human Kidney epithelial cells assessed as cell growth inhibition measured after 24 hrs by XTT assay", "type": "toxicity, cell-based"}, "Jurkat": {"system": "Jurkat", "experiment": "Antiproliferative activity against human Jurkat cells assessed as cell growth inhibition measured after 48 hrs by MTT assay", "type": "functional, cell-based"}},
  "data": [
    {"smiles": "COc1ccc(NS(=O)(=O)c2ccc3c(c2)c2cc(O)ccc2n3C)c(OC)n1", "values": [
      {"measurement": "IC50", "setting": "KYSE-510", "result": 0.01, "unit": "µM"},
      {"measurement": "IC50", "setting": "[1]", "result": 0.01, "unit": "µM"},
      {"measurement": "IC50", "setting": "KYSE-410", "result": 0.01, "unit": "µM"},
      {"measurement": "IC50", "setting": "KYSE-30", "result": 0.01, "unit": "µM"},
      {"measurement": "IC50", "setting": "KYSE-140", "result": 0.01, "unit": "µM"}
    ]},
    {"smiles": "COc1ccc(NS(=O)(=O)c2ccc3c(c2)c2cc(OCCCN4CCN(C)CC4)ccc2n3C)c(OC)n1", "values": [
      {"measurement": "IC50", "setting": "MCF7 [2]", "result": 5.67, "unit": "µM"},
      {"measurement": "IC50", "setting": "HepG2 [3]", "result": 5.67, "unit": "µM"},
      {"measurement": "IC50", "setting": "MIA PaCa-2", "result": 5.67, "unit": "µM"},
      {"measurement": "IC50", "setting": "Bel-7402", "result": 5.67, "unit": "µM"},
      {"measurement": "inhibition in vivo at 10 mg/kg", "setting": "HepG2 [4]", "result": 61.1, "unit": "%"}
    ]},
    {"smiles": "COc1ccc(/C=C\\c2cc(OC)c(OC)c(OC)c2)cc1OP(=O)(O)O", "note": "[FOSBRETABULIN]", "values": [
      {"measurement": "inhibition in vivo at 50 mg/kg", "setting": "HepG2 [5]", "result": 48.3, "unit": "%"}
    ]},
    {"smiles": "COc1cc(NC(=O)Nc2cc(C)c3[nH]c4ccc(C)cc4c3c2C)cc(OC)c1OC", "values": [
      {"measurement": "IC50", "setting": "MCF7 [6]", "result": 1.93, "unit": "µM"},
      {"measurement": "IC50", "setting": "MDA-MB-231 [7]", "result": 1.93, "unit": "µM"},
      {"measurement": "IC50", "setting": "HepG2 [8]", "result": 1.93, "unit": "µM"},
      {"measurement": "IC50 at 72 h", "setting": "[9]", "result": 141, "unit": "µM"},
      {"measurement": "IC50 at 72 h", "setting": "[10]", "result": 210, "unit": "µM"},
      {"measurement": "IC50", "setting": "HeLa", "result": 1.93, "unit": "µM"}
    ]},
    {"smiles": "CNC1=C([N+](=O)[O-])C(c2cc(OC)c(OC)c(OC)c2)c2ccc3[nH]c4ccccc4c3c2O1", "note": "(centres undefined)", "values": [
      {"measurement": "IC50", "setting": "DU-145", "result": 5.1, "unit": "µM"},
      {"measurement": "IC50", "setting": "MDA-MB-231 [11]", "result": 5.1, "unit": "µM"},
      {"measurement": "IC50", "setting": "SK-OV-3", "result": 5.1, "unit": "µM"},
      {"measurement": "IC50", "setting": "B16-F10", "result": 5.1, "unit": "µM"}
    ]},
    {"smiles": "CCOc1ccc2c(c1)c1c(n2CCN2CCNCC2)-c2cc(C(C)C)ccc2[C@@]2(C)CCC[C@@](C)(C(=O)OC)C12", "note": "(some centres undefined)", "values": [
      {"measurement": "IC50", "setting": "HepG2 [12]", "result": 0.51, "unit": "µM"},
      {"measurement": "IC50", "setting": "SMMC-7721", "result": 0.51, "unit": "µM"},
      {"measurement": "IC50", "setting": "Hep 3B2", "result": 0.51, "unit": "µM"},
      {"measurement": "IC50 at 48 h", "setting": "[13]", "result": 12.5, "unit": "µM"}
    ]},
    {"smiles": "C[N+](C)(C)CCN1CCN(CCCCCn2c3ccccc3c3cc(Cl)ccc32)CC1", "values": [
      {"measurement": "IC50", "setting": "MDA-MB-231 [14]", "result": 4.4, "unit": "µM"},
      {"measurement": "IC50", "setting": "MCF7 [15]", "result": 4.4, "unit": "µM"}
    ]},
    {"smiles": "COc1ccc2c(c1)c1cc3c(-c4c([N+](=O)[O-])ncn4C)nccc3c(C)c1n2C", "values": [
      {"measurement": "IC50", "setting": "CCRF-CEM", "result": 1.08, "unit": "µM"},
      {"measurement": "IC50", "setting": "A549", "result": 1.08, "unit": "µM"},
      {"measurement": "IC50", "setting": "MCF7 [2]", "result": 1.08, "unit": "µM"}
    ]},
    {"smiles": "CN(C)CCCNC(=O)c1ccc(-n2cc(-c3ccc4c(c3)c3ccccc3n4CCCN(C)C)nn2)cc1", "values": [
      {"measurement": "IC50 at 24 h", "setting": "[16]", "result": "> 30", "unit": "µM"}
    ]},
    {"smiles": "O=C(Cn1c2ccccc2c2c3oc(=O)cc(COC(=O)CCCc4ccc(N(CCCl)CCCl)cc4)c3ccc21)NCCC[P+](c1ccccc1)(c1ccccc1)c1ccccc1", "values": [
      {"measurement": "IC50", "setting": "Jurkat", "result": 20, "unit": "µM"}
    ]},
    {"smiles": "C[N+](C)(C)CCN1CCN(CCCCCCn2c3ccccc3c3cc(Cl)ccc32)CC1", "values": [
      {"measurement": "IC50", "setting": "MDA-MB-231 [14]", "result": 4.4, "unit": "µM"},
      {"measurement": "IC50", "setting": "MCF7 [15]", "result": 4.4, "unit": "µM"}
    ]}
  ]
}
